A short description of the test: Reduction of hydrogen peroxide. The format is biochemical. The conditions noted are these: compound 0.1 mM, 10 min, pH 7.4. The source says: For the above reasons, the antioxidant ability of 5–F–saloH and Cu(II) complexes 1–5 has been evaluated via their scavenging activity towards DPPH and ABTS radicals, as well as the ability to reduce H2O2, and in comparison with that of well-known antioxidant agents such as nordihydroguaiaretic acid (NDGA), butylated hydroxytoluene (ΒHΤ), 6–hydroxy–2,5,7,8–tetramethylchromane–2–carboxylic acid (trolox) and L–ascorbic acid (these are the most commonly used standard reference antioxidant agents). The DPPH-radical assay was developed in the 1950s and this method has been used to assess the antioxidant capacity of several metal complexes. The DPPH–scavenging ability of compounds has often been related to their ability to prevent ageing, cancer and inflammation. The ability of a compound to scavenge the cationic ABTS radicals (ABTS^+●) has been considered a measure of its total antioxidant activity. Further, hydrogen peroxide has the ability to penetrate biological membranes and, although it is not very reactive itself, it can sometimes be toxic since it may give rise to hydroxyl radicals in cells. For this reason, the removal of H2O2 is very important for the protection of living systems. When a compound is incubated with H2O2 using a peroxidase assay system, the loss of H2O2 can be measured.
S1 Antioxidant activity assay
The antioxidant activity of the compounds was evaluated via their ability to scavenge in vitro free radicals such as DPPH and ABTS and to reduce H 2O2. All the experiments were carried out at least in triplicate and the standard deviation of absorbance was less than 10% of the mean.
S1.1 Determination of the reducing activity of the radical DPPH […]
S1.3 Reduction of hydrogen peroxide
The ability of the com pounds to reduce hydrogen peroxide (H2O2) was est imated according to the method descr ibed in the literature [S2]. The reaction mixture contained 20 μL of each of the tested compounds (0.1 mM) and 5 μL H2O 2 solution (40 mM) in phosphate buffer (50 mM, pH = 7.4). The absorbance was measure d at 230 nm after 10 min.
The antioxidant activity (reduction of hydrogen peroxide) of the compounds wa s […]
expressed as the percentage decrease of t he init ial H 2O2 solution (H 2O2%). L-ascor b ic ac id (or vitamin C) was use d as a standard. […]
[DNA] = [DNA] + 1 (eq. S1) […]
where [DNA] is the concentration of DNA in base pa irs, εA = Aobsd/[compound ], εf = the extinction coefficient for the free compound and ε b = the extinction coefficient for the compound in the fully bound form. Kb is given by the ratio of slope to the y intercept in plots [DNA]/(εA-εf) versus[DNA].
S2.2CT DNA -binding studie s by viscosity measurements
The interaction of compounds with DNA has been evaluated via the study of the CT DNA viscosity ([DNA] = 0.1 mΜ) in a buffer solution (150 mM NaCl and 15 mM trisodium citrate at pH 7.0) in the presence of increasing amount of complexes (up to the value of r = 0.36). The obtained data are presented as (η/η 0)1/3 versus r, where η is the viscosity of DNA in the presence of the compound, and η0 is the viscosity of DNA alone in buffer solution.
S2.3 EB -displa cement studie s
The competition of the complexes with EB was investigated by fluorescence emission spectroscopy in order to examine whether the compounds can displace EB from its DNA-EB conjugate. The CT DNA-EB complex was formed by pre-treating 20 μM EB and 26 μM CT DNA in buffer (150 mM NaCl and 15 mM trisodium citrate at pH = 7.0).
The possible displacement of EB by the compounds and su bseq uently t he ir intercalating effect was studied by the stepwise addition of a certain amount of the solution of each

Experimental findings from PMC9782626, “Copper(II) Complexes of 5–Fluoro–Salicylaldehyde: Synthesis, Characterization, Antioxidant Properties, Interaction with DNA and Serum Albumins” (Molecules, 2022) are described below.

As for `O=Cc1cc(F)ccc1[O-].O=Cc1cc(F)ccc1[O-].[Cu+2]` [Complex 1, [Cu(5–F–salo)2]], the “H2O2%, H2O2–reducing activity” value turned out to be 71.61 ± 0.35%.
`O=Cc1cc(F)ccc1[O-].[Cl-].[Cu+2].c1ccc(Nc2ccccn2)nc1` [Complex 2, [Cu(5–F–salo)(bipyam)Cl]]: the “H2O2%, H2O2–reducing activity” value was found to be 99.69 ± 0.29%.
As for `CO.Cc1ccc2ccc3ccc(C)nc3c2n1.O=Cc1cc(F)ccc1[O-].[Cl-].[Cu+2]` [Complex 3, [Cu(5–F–salo)(neoc)Cl].CH3OH], the “H2O2%, H2O2–reducing activity” value was determined as 26.10 ± 0.66%.
For `O=Cc1cc(F)ccc1[O-].O=[N+]([O-])[O-].[Cu+2].c1cnc2c(c1)ccc1cccnc12` [Complex 4, [Cu(5–F–salo)(phen)(NO3)]], the “H2O2%, H2O2–reducing activity” value stood at 25.90 ± 0.76%.
Take `O=Cc1cc(F)ccc1[O-].O=[N+]([O-])[O-].[Cu+2].c1ccc(-c2ccccn2)nc1` [Complex 5, [Cu(5–F–salo)(bipy)(NO3)]]: the “H2O2%, H2O2–reducing activity” value was determined as 69.21 ± 1.10%.
